Series [1] concerns Lactobacillus clearans. As to the kind of experiment: Viability of Lactobacillus clearans during lyophilization with preservatives. Type of series: cell-based. Conditions: protein-amino acid-based preservative used alone; viability class. The procedure:
(§1) Here, alfalfa juice and clover juice refer to liquids which are made by adding 10-fold water to alfalfa grass or clover grass to make a juice, these being used as alfalfa juice or clover juice, respectively. The amounts in which the preservatives are added are expressed in terms of the weight ratio of the preservative relative to the weight of the viable cells. […] The viability of Lactobacillus clearans is expressed as a percentage, where 100% is the viable cell count immediately after lyophilization. The viability during lyophilization is indicated as concentric circles when the viability is more than 90%, as two concentric circles to one circle when the rate is 80 to 90%, as one circle when the rate is 60 to 80%, as a square when the rate is 40 to 60%, as a triangle when the rate is 20 to 40%, and as an “x” when the rate is less than 20%.
(§2) Here, the amounts in which the preservatives were added are expressed as the weight ratio of the preservative relative to the viable cell weight. […] The viability of Lactobacillus clearans during lyophilization is indicated as two concentric circles when the viability is more than 90%, as two concentric circles to one circle when the rate is 80 to 90%, as one circle when the rate is 60 to 80%, as a square when the rate is 40 to 60%, as a triangle when the rate is 20 to 40%, and as an “x” when the rate is less than 20%.

Series [2] concerns Lactobacillus clearans. As to the kind of experiment: Viability of Lactobacillus clearans during storage with preservatives. As to the method: as §1, §2
The test system of series [3] is Lactobacillus clearans. As to the kind of experiment: Changes in titer of Lactobacillus clearans during storage with preservatives. It is filed as cell-based. Conditions: protein-amino acid-based preservative. The procedure: as §1, §2
Series [4] deals with Lactobacillus clearans. The experiment in a line: Effect of substances added during subculture on titer of Lactobacillus clearans. It is filed as cell-based. Conditions: added to medium during subculture. From the text: The most important amino acids constituting the bacterial cells or enzymes were studied by type for their effects on Lactobacillus clearans.
We looked for substances capable of such enhancement or potentiation and conducted extensive- study.

Setting [5] is: protein-amino acid-based preservative, 100% = viable cell count immediately after lyophilization.

Experimental findings from US20020045242A1, “Culture medium for culturing Lactobacillus clearans, and method for preserving said strain” (priority 1999, published 2002) are described below.

Structures are written as SMILES.

Consider `NCCCC[C@H](N)C(=O)O` [Lysine], for which the Results during lyophilization result in the series on Lactobacillus clearans [1] was “Δ (a triangle when the rate is 20 to 40%)”. Moreover, in the series on Lactobacillus clearans [2] (setting [5]), the “Changes over time during storage, Viability (%) 3 months” value (“Changes … (%) 3 months” for short) stood at 30%; the “Changes over time during storage, Viability (%) 6 months” value (shortened to “Changes … (%) 6 months”) is given as 15%; the “Changes over time during storage, Viability (%) 12 months” value (“Changes … (%) 12 months” below) stood at 5%. In addition, the “Changes over time during storage, Changes in titer” value (shortened to “Changes … in titer”) in the series on Lactobacillus clearans [3] is recorded as “±”. For the same compound, the “effect on titer of Lactobacillus clearans” value (“effect on titer” below) in the series with Lactobacillus clearans [4] was “extremely effective”.

Turning to `CSCC[C@H](N)C(=O)O` [Methionine], in the series on Lactobacillus clearans [1], the Results during lyophilization result is recorded as “◯ (one circle when the rate is 60 to 80%)”. Besides, in the series on Lactobacillus clearans [2] (Lactobacillus clearans), the “Changes … (%) 3 months” value turned out to be 65%; the “Changes … (%) 6 months” value was determined as 45%; the “Changes … (%) 12 months” value is listed as 30%. The “Changes … in titer” value in the series on Lactobacillus clearans [3] is reported as “+”. For the same compound, the “effect on titer” value in the series on Lactobacillus clearans [4] is “extremely effective”.

Regarding `NCCS(=O)(=O)O` [Taurine], in the series on Lactobacillus clearans [1], the Results during lyophilization result is recorded as “◯ (one circle when the rate is 60 to 80%)”. Moreover, in the series with Lactobacillus clearans [2] (Lactobacillus clearans), the “Changes … (%) 3 months” value is 70%; the “Changes … (%) 6 months” value is 50%; the “Changes … (%) 12 months” value is recorded as 35%. The “Changes … in titer” value in the series on Lactobacillus clearans [3] is given as “+”. In addition, the “effect on titer” value in the series on Lactobacillus clearans [4] is recorded as “extremely effective”.
